Measured values published in PMC12588083, “Validated antimalarial drug target discovery using genome-scale metabolic modeling” (Antimicrobial Agents and Chemotherapy, 2025).

What was measured:
[1] = target: recombinant PfUCK (P. falciparum UMP-CMP kinase, PfUCK-Δ23) (Plasmodium falciparum, UniProt Q8I231); assay: Inhibition constant (Ki) determination, coupled PK/LDH NADH assay, recombinant PfUCK; type: biochemical; settings: for Ki—PfUCK: Table 4, benzoylacetonitrile derivatives, 1 mM CMP, competitive equation
Procedure: The hydrophobic core at the protein’s N-terminus may cause poor expression and low solubility in E. coli. Therefore, a truncated gene was created where the ORF began at amino acid residues 24–371, encoding a 348 amino acid protein. […] Briefly, protein expression was induced with isopropyl-D-thiogalactoside, incubated at 16°C with shaking at 200 RPM for 20 hours, and the cell pellet resuspended in binding buffer (50 mM Tris [pH 7.6], 300 mM NaCl, 20 mM imidazole, 5% glycerol, and 0.075% β-mercaptoethanol), with cell disruption using an Avestin C3 Cell Disrupter. Cell debris was removed, and the UCK was purified by Ni-NTA affinity purification. The protein was eluted from the column using a linear gradient of imidazole ([…]) in elution buffer (50 mM Tris [pH 7.6], 300 mM NaCl, 5% glycerol, and 0.075% β-mercaptoethanol). […] The concentrated protein was then stored at −70°C in a storage buffer (25 mM Tris-HCl, 50 mM KCl, and 20% glycerol; pH 7.0).
The final concentration of dimethyl sulfoxide (Merck, Catalog number 472301) in the assay reaction was maintained at 1%.

P. falciparum 3D7 = assay: Antiplasmodial activity (IC50), SYBR Green fluorescence, 48 hours; type: cell-based, Plasmodium falciparum
Procedure: P. falciparum 3D7 parasites underwent two synchronization cycles with D-sorbitol initiating the inhibitor testing. Parasitemia and hematocrit were adjusted to 0.5% and 3%, respectively. Synchronized ring parasites were cultured in 96-well plates in complete RPMI medium with varying inhibitor concentrations. Inhibitor stock solutions, mostly at 100 mM, were prepared in DMSO. […] Triplicate wells were prepared for each compound. Negative controls included wells with uninfected red cells (3% hematocrit) in complete RPMI medium.
Culture plates were incubated in a chamber with controlled gas conditions at 37°C. After 48 hours, parasites were quantified using a fluorescence-based assay with SYBR Green dye as previously described ([51]). Lysis buffer containing SYBR Green was added to each well, and plates were incubated at room temperature for 45 minutes and protected from the light. Fluorescence was measured using a microplate reader (POLARstar OPTIMA, BMG Labtech) with excitation at 485 nm and detection at 520 nm. Background fluorescence of uninfected red cells was subtracted, and dose-response curves were plotted against inhibitor concentration. IC50 values were determined using nonlinear regression curve fitting in GraphPad Prism software.

[2] = test system: synchronised Plasmodium falciparum 3D7 cultures; assay: In vitro flux measurements of glucose and amino acids in spent media; type: cell-based; settings: ± SD, positive = into infected red blood cell, negative = efflux into media; for flux 6 - 18 hps: early to mid-ring stage; for flux 42 - 48 hps: late schizont stage; for flux 30 - 36 hps: late trophozoite stage
Procedure: Cultures were synchronized with 5% sorbitol ([36]). Synchronized cultures with a total volume of 18 mL at 1% parasitemia and 5% hematocrit were placed in nonvented 75 cm^2 tissue culture flasks (Nunclon). Red blood cells at 5% hematocrit were used as control. One milliliter of culture was collected at time 0 and every 6 hours until 48 hours post synchronization. The collected sample was placed in a 1.5 mL microcentrifuge tube and centrifuged at 3,000 RPM for 2 minutes. The spent media were collected and stored at −80°C prior to analysis. Three biological replicates were analyzed.
A glucose assay on the spent media was performed using a glucose oxidase-peroxidase format assay kit (Megazyme). Amino acid concentrations in the spent media were determined using an Ultimate 3000 High-Performance Liquid Chromatography system (Dionex, UK). A ramp gradient reverse-phase chromatography was done with an Acclaim 120 C18 (Dionex, UK) 100 × 2.1 mm column (3 µm particle size, 120 Å pore size) stationary phase. Eluent A (10 mM Na2HPO4, 10 mM Na2HB4O7·10 H2O, 0.5 mM NaN3, pH 8.2) and eluent B (45% methanol [vol/vol] 45% acetonitrile [vol/vol] in water) constituted the mobile phase (Table S1).
Samples were derivatized manually within 10 minutes prior to chromatography. The derivatization procedure was done in a 1.5 mL microcentrifuge tube at room temperature by adding the following reagents in this particular order:
Spent media for both infected and uninfected (control) samples were assayed for glucose and amino acid concentrations as detailed above. The net metabolite flux from time 0 ( t0 ) to time n ( tn ) was calculated using the formula:
fluxt0-tn=vt0×∆Ci-∆Cu/gDWt0×∆t
The parasite mass gDWt0 was determined using the calculated number of parasites based on the parasitemia, hematocrit, and the volume at t0 :
In this case, it was assumed for simplicity that each infected RBC contained only one parasite. […] Flux calculations were done to represent the three main blood stage forms: the change in concentration from t6 to t18 was used to calculate the early to mid-ring stage flux, from t30 to t36 for the late trophozoite, and from t42 to t48 for the late schizont stage. […] A positive flux represents the entry of metabolites into the model, while a negative flux represents the movement of metabolites into the external environment.
Supplementary Table 5 Experimental glucose and amino acid flux measurements. […] A positive flux indicates movement of the metabolite into the infected red blood cell while a negative flux indicates efflux of the metabolite into the media.

[3] = Plasmodium falciparum, 3D7, 48 h, Supplementary Table 7, benzoylacetonitrile derivatives
[4] = Supplementary Table 7, benzoylacetonitrile derivatives

recombinant PfUCK (P. falciparum UMP-CMP kinase, PfUCK-Δ23), sequence (Q8I231 entry or part of it, stated change not applied): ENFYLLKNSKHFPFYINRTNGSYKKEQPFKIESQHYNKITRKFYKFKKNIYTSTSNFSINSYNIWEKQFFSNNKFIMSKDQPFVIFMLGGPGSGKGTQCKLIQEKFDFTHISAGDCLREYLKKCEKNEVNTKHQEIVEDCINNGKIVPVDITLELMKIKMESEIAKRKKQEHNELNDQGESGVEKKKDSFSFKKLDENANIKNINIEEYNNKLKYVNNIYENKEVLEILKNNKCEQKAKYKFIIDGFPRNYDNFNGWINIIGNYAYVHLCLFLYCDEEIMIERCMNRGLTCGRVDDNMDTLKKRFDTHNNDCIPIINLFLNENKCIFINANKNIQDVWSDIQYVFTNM

Structure (SMILES) | Ki—PfUCK [1] | flux 6 - 18 hps [2] | flux 42 - 48 hps [2] | flux 30 - 36 hps [2] | also measured
COc1ccc(C(=O)CC#N)cc1 [Compound C8] | no inhibition at 1 mM | – | – | – | –
COC(=O)c1ccc(C(=O)CC#N)cc1 [Compound C9] | insoluble | – | – | – | –
N#CCC(=O)c1ccc(Cl)cc1 [Compound C10] | No inhibition at 1 mM | – | – | – | –
N#CCC(=O)c1ccccc1 [Compound C11] | No inhibition at 1 mM | – | – | – | –
N#CCC(=O)c1cccc(Br)c1 [Compound C37] | no inhibition at 1 mM | – | – | – | –
C=CC(=O)N1CCC(C(=O)NCc2cc(=O)n3ccccc3n2)CC1 [Compound C58] | – | – | – | – | Ki [1]: 2.11 ± 0.21 µM; IC50 (P. falciparum 3D7; Plasmodium falciparum, 3D7, 48 h, Table 5): > 1000 µM
N#CCC(=O)c1cc(Cl)cc(Cl)c1 [Compound C62] | No inhibition at 1 mM | – | – | – | –
N#CCC(=O)c1cccc(Cl)c1Cl [Compound C64] | No inhibition at 1 mM | – | – | – | –
COc1cccc(C(=O)CC#N)c1 [Compound C65] | no inhibition at 1 mM | – | – | – | –
Cc1cccc(C(=O)CC#N)c1 [Compound C66] | No inhibition at 1 mM | – | – | – | IC50 (P. falciparum 3D7; [3]): > 310 µM; IC50 (P. falciparum 3D7; [4]): 310 ± 57.9 µM
N#CCC(=O)c1cncc(Br)c1 [Compound C67] | – | – | – | – | Ki [1]: 4.38 ± 1.45 µM; IC50 (P. falciparum 3D7; [3]): 531 ± 61.2 µM
N#CCC(=O)c1cccc(C(F)(F)F)c1 [Compound C69] | No inhibition at 1 mM | – | – | – | –
N#CCC(=O)c1ccc(CN2CCOCC2)cc1 [Compound C77] | No inhibition at 1 mM | – | – | – | –
N#CCC(=O)c1ccc(-c2ccccc2)cc1 [Compound C79] | No inhibition at 1 mM | – | – | – | –
N#CCC(=O)c1cccc([N+](=O)[O-])c1 [Compound C80] | No inhibition at 1 mM | – | – | – | –
N#CCC(=O)c1cc(C(F)(F)F)cc(C(F)(F)F)c1 [Compound C83] | – | – | – | – | Ki [1]: 4.66 ± 0.29 µM; IC50 (P. falciparum 3D7; [3]): > 310 µM; IC50 (P. falciparum 3D7; [4]): 317 ± 50.8 µM
OC[C@H]1OC(O)[C@H](O)[C@@H](O)[C@@H]1O (stereo partly drawn) [D-Glucose] | – | 1.3 ± 0.82 mmol/gDW/hr | 0.60 ± 0.21 mmol/gDW/hr | 3.2 ± 1.2 mmol/gDW/hr | –
NCC(=O)O [Glycine] | – | -0.014 ± 0.028 mmol/gDW/hr | 0.037 ± 0.17 mmol/gDW/hr | -0.0093 ± 0.12 mmol/gDW/hr | –

Structure (SMILES) | Ki—PfUCK [1] | flux 6 - 18 hps [2] | flux 42 - 48 hps [2] | flux 30 - 36 hps [2] | also measured
C[C@H](N)C(=O)O [L-Alanine] | – | -0.023 ± 0.017 mmol/gDW/hr | 0.00 ± 0.024 mmol/gDW/hr | -0.041 ± 0.036 mmol/gDW/hr | –
N=C(N)NCCC[C@H](N)C(=O)O [L-Arginine] | – | 0.072 ± 0.11 mmol/gDW/hr | 0.22 ± 0.35 mmol/gDW/hr | -0.15 ± 0.49 mmol/gDW/hr | –
NC(=O)C[C@H](N)C(=O)O [L-Asparagine] | – | -0.0094 ± 0.011 mmol/gDW/hr | 0.070 ± 0.17 mmol/gDW/hr | -0.10 ± 0.12 mmol/gDW/hr | –
N[C@@H](CC(=O)O)C(=O)O [L-Aspartic acid] | – | 0.0048 ± 0.011 mmol/gDW/hr | 0.019 ± 0.058 mmol/gDW/hr | 0.00 ± 0.029 mmol/gDW/hr | –
N[C@@H](CCC(=O)O)C(=O)O [L-Glutamic acid] | – | -0.019 ± 0.0081 mmol/gDW/hr | 0.0047 ± 0.077 mmol/gDW/hr | -0.056 ± 0.024 mmol/gDW/hr | –
NC(=O)CC[C@H](N)C(=O)O [L-Glutamine] | – | 0.00 ± 0.023 mmol/gDW/hr | 0.36 ± 0.72 mmol/gDW/hr | -0.40 ± 0.63 mmol/gDW/hr | –
N[C@@H](Cc1c[nH]cn1)C(=O)O [L-Histidine] | – | -0.0073 ± 0.013 mmol/gDW/hr | 0.066 ± 0.076 mmol/gDW/hr | -0.066 ± 0.095 mmol/gDW/hr | –
CC[C@H](C)[C@H](N)C(=O)O [L-Isoleucine] | – | 0.017 ± 0.023 mmol/gDW/hr | 0.081 ± 0.14 mmol/gDW/hr | -0.062 ± 0.14 mmol/gDW/hr | –
CC(C)C[C@H](N)C(=O)O [L-Leucine] | – | 0.28 ± 0.065 mmol/gDW/hr | 0.047 ± 0.10 mmol/gDW/hr | -0.14 ± 0.070 mmol/gDW/hr | –
NCCCC[C@H](N)C(=O)O [L-Lysine] | – | 0.00 ± 0.064 mmol/gDW/hr | 0.073 ± 0.29 mmol/gDW/hr | 0.038 ± 0.20 mmol/gDW/hr | –
CSCC[C@H](N)C(=O)O [L-Methionine] | – | 0.0024 ± 0.0082 mmol/gDW/hr | 0.028 ± 0.025 mmol/gDW/hr | -0.028 ± 0.025 mmol/gDW/hr | –
N[C@@H](Cc1ccccc1)C(=O)O [L-Phenylalanine] | – | -0.0099 ± 0.016 mmol/gDW/hr | 0.025 ± 0.023 mmol/gDW/hr | -0.035 ± 0.0086 mmol/gDW/hr | –
N[C@@H](CO)C(=O)O [L-Serine] | – | -0.019 ± 0.021 mmol/gDW/hr | 0.062 ± 0.11 mmol/gDW/hr | -0.062 ± 0.091 mmol/gDW/hr | –
C[C@@H](O)[C@H](N)C(=O)O [L-Threonine] | – | -0.014 ± 0.026 mmol/gDW/hr | 0.028 ± 0.099 mmol/gDW/hr | -0.038 ± 0.050 mmol/gDW/hr | –
N[C@@H](Cc1c[nH]c2ccccc12)C(=O)O [L-Tryptophan] | – | 0.0026 ± 0.0045 mmol/gDW/hr | 0.010 ± 0.024 mmol/gDW/hr | 0.010 ± 0.036 mmol/gDW/hr | –
N[C@@H](Cc1ccc(O)cc1)C(=O)O [L-Tyrosine] | – | -0.0051 ± 0.0044 mmol/gDW/hr | -0.046 ± 0.17 mmol/gDW/hr | -0.031 ± 0.031 mmol/gDW/hr | –
CC(C)[C@H](N)C(=O)O [L-Valine] | – | -0.036 ± 0.098 mmol/gDW/hr | 0.024 ± 0.12 mmol/gDW/hr | -0.0096 ± 0.022 mmol/gDW/hr | –
